PMC3585277, “The C-Terminal Region Mesd Peptide Mimics Full-Length Mesd and Acts as an Inhibitor of Wnt/β-Catenin Signaling in Cancer Cells” (PLoS ONE, 2013)

Experiments:
[1] = test system: LRP6; test: 125I-Mesd ligand binding assay, LRP6-transduced HT1080 cells; design: species or system human; settings: for block of Mesd protein binding to LRP6 at the cell surface / concentration at which inhibitory ability on Mesd binding was displayed: 125I-Mesd 5 nM, 4 h at 4°C; for block of Mesd protein binding to LRP6 at the cell surface: LRP6-transduced HT1080 cells; for concentration at which inhibitory ability on Mesd binding was displayed / inhibitory concentration relative to that required for mMesd (155–191): LRP6-expressing cells
Protocol: (§1) Ligand binding assay was carried out exactly as previously described. Cells (2×10^5) were seeded into 12-well dishes 1 day prior to assay. Ligand-binding buffer (minimal Eagle's medium containing 0.6% BSA with a different concentration of radioligand, 0.6 ml/well) was added to cell monolayers, in the absence or the presence of unlabeled Mesd or its peptide, followed by incubation for 4 h at 4°C. Thereafter, overlying buffer containing unbound ligand was removed, and cell monolayers were washed and lysed in low-SDS lysis buffer (62.5 mM Tris-HCl pH 6.8, 0.2% SDS, 10% v/glycerol) and counted.

[2] = test system: LRP5; test: 125I-Mesd ligand binding assay, LRP5-transfected ldl-7 cells; settings: for block of Mesd protein binding to LRP5 at the cell surface / concentration at which inhibitory ability on Mesd binding was displayed: 4 h at 4°C; for concentration at which inhibitory ability on Mesd binding was displayed / inhibitory concentration relative to that required for mMesd (155–191): LRP5-expressing cells
Protocol: as §1

[3] = test system: Wnt/β-catenin signaling; test: TOPFlash luciferase reporter assay, LRP5-transfected HEK293 cells; format: cell-based, human; settings: Wnt3A CM 5%, Rspo1 40 ng/ml, mMesd 2 µM, peptide at indicated concentrations, 24 h, normalized to β-galactosidase
Protocol: (§2) Cells were plated into 24-well plates. After overnight culture, the cells were transiently transfected with the TOPFlash or Super8XTOPFlash luciferase construct, β-galactosidase-expressing vector, and pcDNA3.1C-Myc-hLRP5, pCS-Myc-hLRP6 or control vector. After 24 h incubation, cells were treated with Mesd, Mesd peptide, Rspo1 and Wnt3A CM. Cells were then lysed 24 h later and both luciferase and β-galactosidase activities were determined. The luciferase activity was normalized to the β-galactosidase activity.

[4] = test system: Wnt/β-catenin signaling; test: TOPFlash luciferase reporter assay, LRP6-transfected HEK293 cells; format: cell-based, human; settings: Wnt3A CM 5%, Rspo1 40 ng/ml, mMesd 2 µM, peptide at indicated concentrations, 24 h, normalized to β-galactosidase
Protocol: as §2

[5] = test system: LRP6 phosphorylation; test: Western blot of phosphorylated LRP6 in C2C12 cells; format: cell-based, mouse; settings: C2C12, Wnt3A CM 5%, 6 h; mMesd 0.5 µM, peptide at indicated concentrations
Protocol: (§3) Cells in 6-well plates were lysed in 0.5 ml of lysis buffer (phosphate-buffered saline containing 1% Triton X-100 and 1 mM PMSF) at 4°C for 10 min. Equal quantities of protein were subjected to SDS-PAGE under reducing conditions. Following transfer to immobilon-P transfer membrane, successive incubations with anti-HA, anti-Wnt10b, anti-β-catenin, anti-OPG, anti-phosphorylated-LRP6, anti-LRP6, anti-Axin2, anti-Cyclin D1 or anti-actin, and horseradish peroxidase-conjugated secondary antibody were carried out for 60–120 min at room temperature. The immunoreactive proteins were then detected using the ECL system. Films showing immunoreactive bands were scanned by Kodak Digital Science DC120 Zoom Digital Camera.

[6] = test system: OPG expression; test: Western blot of OPG expression in C2C12 cells; format: cell-based, mouse; settings: 48 h, mMesd 0.5 µM
Protocol: as §3

[7] = test system: HS578T cells; test: Cell viability, Cell Titer Glo Assay, HS578T cells; format: cell-based, human
Protocol: (§4) Cell viability was measured in 96-well plates by the Cell Titer Glo Assay (Promega), which is a luminescent assay that is an indicator of live cells as a function of metabolic activity and ATP content.

[8] = test system: Wnt/β-catenin signaling; test: Super8XTOPFlash luciferase reporter assay, HEK293 cells (Figure S1, S2); format: cell-based, human; settings: 24 h, peptide 8 µM in Figure S1
Protocol: as §2
Supplementary file pone.0058102.s001.tif: Figure S1 Human Mesd C-terminal region peptide blocks Wnt/β-catenin signaling induced by LRP6, Wnt3A and Rspo1 in HEK293 cells. […] The luciferase activity was then measured 24 h later with normalization to the activity of the β-galactosidase. […]
Supplementary file pone.0058102.s002.tif: Figure S2 Mesd blocks Wnt1- or Wnt10b-induced Wnt/β-catenin signaling in HEK293 cells. […] The luciferase activity was then measured 24 h later with normalization to the activity of the β-galactosidase. […] The levels of cytosolic free β-catenin, and total cellular Wnt1, Wnt10b, β-catenin, LRP6, Axin2, cyclin D1 and phosphorylated LRP6 were then analyzed by Western blotting. […]

[9] = test system: Wnt/β-catenin signaling; test: Super8XTOPFlash luciferase reporter assay, PC-3 cells; format: cell-based, human; settings: 24 h treatment
Protocol: as §2

[10] = test system: Wnt/β-catenin signaling; test: Super8XTOPFlash luciferase reporter assay, HS578T cells; format: cell-based, human; settings: 24 h treatment
Protocol: as §2

[11] = test system: Wnt/β-catenin signaling; test: Western blot / GST-E-cadherin binding assay of Wnt/β-catenin signaling markers, PC-3 cells; format: cell-based, human
Protocol: as §3
(§5) The GST-E-cadherin binding assay was carried out exactly as previously described (9). Uncomplexed cytosolic free β-catenin present in 100 µg of total cell lysate was subjected to SDS-PAGE and detected using the monoclonal antibody to β-catenin.

[12] = test system: Wnt/β-catenin signaling; test: Western blot / GST-E-cadherin binding assay of Wnt/β-catenin signaling markers, HS578T cells; format: cell-based, human; settings: 24 h treatment
Protocol: as §3, §5

[13] = test system: PC-3 cells; test: Cell proliferation assay (trypan blue exclusion), PC-3 cells; format: cell-based, human; settings: PC-3, RPMI-1640 2% FBS, 10 days; mMesd 2 µM, hMesd (160–197) 4 µM, control peptide 4 µM; n = 3
Protocol: (§6) Cells were seeded into 6-well plates at a density of 10000 cells/well. RPMI-1640 or DMEM medium containing 2% FBS was used as assay media. After 16 h incubation, the cells were treated with Mesd or its peptide for 10 days. Media were changed every other day. At the end of the experiment, cells were harvested and counted using the trypan blue exclusion assay.

[14] = test system: HS578T cells; test: Cell proliferation assay (trypan blue exclusion), HS578T cells; format: cell-based, human; settings: DMEM 2% FBS, 10 days, mMesd 2 µM, hMesd (160–197) 4 µM, control peptide 4 µM, n = 3
Protocol: as §6

[15] = test system: PC-3 cells; test: Cell viability, Cell Titer Glo Assay, PC-3 cells; format: cell-based, human; settings: Mesd 2 µM or hMesd (160–197) 2 µM with Adriamycin 0.5 µM, 2 days after pre-treatment
Protocol: as §4

[16] = test system: PC-3 cells; test: BrdU proliferation ELISA, PC-3 cells; format: cell-based, human; settings: PC-3, peptide 2 µM, 7 days in 2% FBS then 2 days in 10% FBS; n = 6
Protocol: (§7) BrdU incorporation into proliferating cells was analyzed by a cell proliferation ELISA BrdU kit (colorimetric, Roche) according to the manufacturer's instructions.

[17] = test system: HS578T cells; test: BrdU proliferation ELISA, HS578T cells; format: cell-based, human; settings: peptide 2 µM, 7 days in 2% FBS then 2 days in 10% FBS, n = 6
Protocol: as §7

[18] = test system: MDA-MB-231 tumor; settings: cited from earlier work
[19] = peptides at indicated concentrations, Figure 1C
[20] = 125I-Mesd 5 nM, peptides at indicated concentrations, LRP5-transfected ldl-7 cells, Figure 1C

## mMesd (155–191): shorter mouse Mesd C-terminal region peptide lacking 9 conserved terminal residues of mMesd (150–195) (GSYAWEIKDFLVSQDRCAEVTLEGQMYPGKGGGSKEK; UniProt Q9ERE7 155-191, looked up, fragment)
[1]; 500 nM peptide, Figure 1B, triple determinations
  block of Mesd protein binding to LRP6 at the cell surface: blocked
[2]; 125I-Mesd binding assay with LRP5-expressing cells
  block of Mesd protein binding to LRP5 at the cell surface: blocked
[3]
  TOPFlash activity induced by LRP5, LRP5 plus Wnt3A, LRP5 plus Rspo1: blocked
[4]
  TOPFlash activity induced by LRP6, LRP6 plus Wnt3A, LRP6 plus Rspo1: blocked
[5]
  Wnt3A-induced endogenous LRP6 phosphorylation: able to suppress
[6]; C2C12, Rspo1 20 ng/ml, Wnt3A CM 2%, mMesd (155–191) 2 µM
  OPG expression induced by Rspo1 plus Wnt3A: repressed
[6]; C2C12, Wnt3A CM 5%, peptide at indicated concentrations
  Wnt3A-induced OPG expression: able to suppress

## COc1cccc2c1C(=O)c1c(O)c3c(c(O)c1C2=O)C[C@@](O)(C(=O)CO)C[C@@H]3O[C@H]1C[C@H](N)[C@H](O)[C@H](C)O1 [Adriamycin, reference compound]
[7]; single agent: Mesd protein 2 µM or Adriamycin 0.5 µM, Mesd 4 days pre-treatment, then 2 days, n = 4
  inhibition of cell viability: 69%

## KGGGSKEKNKTKQDKGKKKKEGDLKSRSSKEENRAGNK [hMesd (160–197), human Mesd C-terminal region peptide, corresponding to mMesd (155–191)]
[8]
  Wnt/β-catenin signaling induced by LRP6, Wnt3A, Rspo1, Wnt1 and Wnt10b: displayed inhibitory effects
[9]; PC-3, endogenous signaling, indicated concentrations
  Wnt reporter luciferase activity: significantly repressed
[9]; PC-3 transfected with Wnt1 plasmid
  Wnt reporter luciferase activity induced by Wnt1: significantly repress
[10]; HS578T transfected with Wnt1 plasmid
  Wnt reporter luciferase activity induced by Wnt1: significantly repress
[10]; HS578T, endogenous signaling, indicated concentrations
  Wnt reporter luciferase activity: significantly repressed
[11]; PC-3, 24 h treatment
  levels of cytosolic free β-catenin, LRP6 phosphorylation, Axin2 and cyclin D1: greatly decreased
[11]; Wnt1-expressing PC-3, 24 h treatment
  levels of cytosolic free β-catenin, LRP6 phosphorylation, Axin2 and cyclin D1: greatly decreased
[12]; HS578T
  levels of cytosolic free β-catenin, LRP6 phosphorylation, Axin2 and cyclin D1: greatly decreased
[12]; Wnt1-expressing HS578T
  levels of cytosolic free β-catenin, LRP6 phosphorylation, Axin2 and cyclin D1: greatly decreased
[13]
  cell proliferation: displayed inhibitory effect
[14]
  cell proliferation: displayed inhibitory effect
[7]; Mesd 2 µM or hMesd (160–197) 2 µM with Adriamycin 0.5 µM, 2 days after pre-treatment
  Adriamycin-induced cytotoxicity: potentiate
[15]
  Adriamycin-induced cytotoxicity: potentiate

## mMesd (183–191): Mesd peptide based on the mouse Mesd C-terminal region sequence (GKGGGSKEK; UniProt Q9ERE7 183-191, looked up, fragment)
[1]
  concentration at which inhibitory ability on Mesd binding was displayed: 50 µM
  inhibitory concentration relative to that required for mMesd (155–191): 100 times
[2]; 125I-Mesd 5 nM
  concentration at which inhibitory ability on Mesd binding was displayed: 50 µM
[2]
  inhibitory concentration relative to that required for mMesd (155–191): 100 times

## Mesd C-terminal region peptide: generic wording; in Figure 7B it is hMesd (160–197); in cited work (ref 13) the peptide is not specified (KGGGSKEKNKTKQDKGKKKKEGDLKSRSSKEENRAGNK)
[16]
  BrdU incorporation: decreased BrdU incorporation
[17]
  BrdU incorporation: decreased BrdU incorporation
[18]
  MDA-MB-231 tumor growth: suppressed

## mMesd (174–191): Mesd peptide based on the mouse Mesd C-terminal region sequence (VTLEGQMYPGKGGGSKEK; UniProt Q9ERE7 174-191, looked up, fragment)
[1]; [19]
  block of Mesd protein binding to LRP6 at the cell surface: inhibition
[2]; [20]
  block of Mesd protein binding to LRP5 at the cell surface: inhibition

## mMesd (155–173): Mesd peptide based on the mouse Mesd C-terminal region sequence (GSYAWEIKDFLVSQDRCAE; UniProt Q9ERE7 155-173, looked up, fragment)
[1]; [19]
  block of Mesd protein binding to LRP6 at the cell surface: inhibition
[2]; [20]
  block of Mesd protein binding to LRP5 at the cell surface: inhibition

## mMesd (165–182): Mesd peptide based on the mouse Mesd C-terminal region sequence (LVSQDRCAEVTLEGQMYP; UniProt Q9ERE7 165-182, looked up, fragment)
[1]; [19]
  block of Mesd protein binding to LRP6 at the cell surface: unable to block
[2]; [20]
  block of Mesd protein binding to LRP5 at the cell surface: unable to block

## mMesd (160–169): Mesd peptide based on the mouse Mesd C-terminal region sequence (EIKDFLVSQD; UniProt Q9ERE7 160-169, looked up, fragment)
[1]
  concentration at which inhibitory ability on Mesd binding was displayed: 50 µM
  inhibitory concentration relative to that required for mMesd (155–191): 100 times
[2]; 125I-Mesd 5 nM
  concentration at which inhibitory ability on Mesd binding was displayed: 50 µM
[2]
  inhibitory concentration relative to that required for mMesd (155–191): 100 times

## mMesd (155–164): Mesd peptide based on the mouse Mesd C-terminal region sequence
[1]; [19]
  block of Mesd protein binding to LRP6 at the cell surface: unable to block
[2]; [20]
  block of Mesd protein binding to LRP5 at the cell surface: unable to block
